Patent US8217085B2 (priority 2009, dated 2012)
Like-named read-outs stand apart in the source and are kept apart here.

Tested on: ATCC strain 43300 Staphylococcus aureus
Type: cell-based

Measured: recovery of MRSA after enrichment

CS(C)(=O)=O [MSM, methylsulfonylmethane]
true total kill: 5% MSM, 60 μg/ml methicillin, 72 hours | 6% MSM, 12 μg/ml methicillin, 72 hours | 6% MSM, 60 μg/ml methicillin, 72 hours | 7% MSM, 12 μg/ml methicillin, 72 hours | 8% MSM, 12 μg/ml methicillin, 96 hours | 10% MSM, 30 μg/ml methicillin, 120 hours | 11% MSM, 30 μg/ml methicillin, 120 hours | 11% MSM, 60 μg/ml methicillin, 120 hours | 12% MSM, 30 μg/ml methicillin, 120 hours | 12% MSM, 60 μg/ml methicillin, 120 hours | 14% MSM, 60 μg/ml methicillin, 120 hours | 15% MSM, 60 μg/ml methicillin, 120 hours | 16% MSM, 30 μg/ml methicillin, 120 hours
